Source: US10525058B2, “Urea derivative or pharmacologically acceptable salt thereof” (KYORIN PHARMACEUTICAL CO., LTD., priority 2015, dated 2020)

Tests used:
human FPRL1 = target: T1, human FPRL1 (Homo sapiens, UniProt P25090); experiment: Measurement test of agonist activity on human FPRL1 (calcium mobilization in HEK293 cells transfected with human FPRL1 and Gα15); format: cell-based; details: Fluo-4 NW, molar concentration giving 50% maximum activation, read-out: Efficacy EC50
T1 construct: expressed in transfected cells; host or cells: HEK293 (JCRB9068, NIBIO), transient co-transfection with pCMV-script vectors
T1 sequence (P25090 1-351): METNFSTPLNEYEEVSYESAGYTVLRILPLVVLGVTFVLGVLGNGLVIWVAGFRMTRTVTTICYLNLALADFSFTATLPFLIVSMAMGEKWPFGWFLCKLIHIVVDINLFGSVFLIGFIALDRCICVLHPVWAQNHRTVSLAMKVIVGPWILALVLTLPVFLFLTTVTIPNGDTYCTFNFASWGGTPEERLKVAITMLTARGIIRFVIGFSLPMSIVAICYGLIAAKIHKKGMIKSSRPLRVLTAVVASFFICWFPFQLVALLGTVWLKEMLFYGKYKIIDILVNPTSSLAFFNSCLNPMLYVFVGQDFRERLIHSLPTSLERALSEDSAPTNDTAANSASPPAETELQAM
Excerpt: Measurement test of agonist activity on human FPRL1
(1-1) Construction of Human FPRL1 Expression Vector
Human FPRL (SEQ ID NO: 3) was amplified in a PCR reaction from cDNA derived from a monocytic leukemia cell line THP-1 (TIB-202, ATCC) as a template using a forward primer shown in SEQ ID NO: 1, a reverse primer shown in SEQ ID NO: 2, and KOD-plus-ver. 2 (KOD-211, TOYOBO CO., LTD.). […] 2 (LGK-201, TOYOBO CO., LTD.). The ligation product was transformed into DH5α (DNA-901, TOYOBO CO., LTD.), cultured on a 100 μg/mL kanamycin-containing LB medium, and purified with HiSpeed Plasmid Maxi Kit (12662, QIAGEN).
(1-2) Construction of Human Gα15 Expression Vector
2. The amplified PCR product and pCMV-script vector were digested with Hind III and XhoI, and the resultant digest was ligated with Ligation high ver. 2. The ligation product was transformed into DH5α, cultured on a 100 μg/mL kanamycin-containing LB medium, and purified with HiSpeed Plasmid Maxi Kit.
(2-1) Method for Culturing and Subculturing HEK293
HEK293 (JCRB9068, NIBIO) was cultured in an incubator at 5% CO2 and 37° C. using DMEM (11885-092, GIBCO) containing 10% FBS and 1cPenicillin-Streptomycin (15140-122, GIBCO).
(2-2) Introduction of Human FPRL1 and Gal5 Expression Vectors
The cells were inoculated in a Collagen Type 1 coated 6-well plate (4810-010, IWAKI) to 5×10^5 cells/2.5 mL/well and cultured overnight. On the next day, human FPRL1 and Gα15 expression vectors were introduced using Lipofectamine 2000 transfection reagent (11668-019, Life technologies). First, the human FPRL1 and Gal5 expression vectors were diluted with Opti-MEM I Reduced Serum Medium (31985-070, GIBCO) to 2 μg/250 μL/well and Lipofectamine 2000 transfection reagent was diluted with Opti-MEM I Reduced Serum Medium to be 4 μL/250 μL/well. The vectors and reagent were softly diffused, and incubated at room temperature for 5 minutes. The vector solution was mixed with Lipofectamine 2000 transfection reagent in equal amounts. In order to form a complex of the vectors and Lipofectamine 2000 transfection reagent, the mixture was incubated at room temperature for 20 minutes, and added at 500 μL/well to the medium of inoculated cells. The treated cells were cultured for 24 hours, inoculated in Poly-D-Lysine coated 96-well plate (356640, BD Biosciences) at a cell density of 7×10^4 cells/100 μL/well, and cultured for another 24 hours. The resultant cells were used in a measurement test of calcium mobilization in the cells.
(3) Evaluation of Agonist Activity on Human FPRL1 (Test of Calcium Mobilization in Cell)
An appropriate amount of each test compound was first weighed, and dissolved to 10^−2 M by addition of dimethyl sulfoxide (DMSO). […] The plate dispensed with compound solutions was set in Flexstation (Molecular Devices, LLC.) until measurement.
Subsequently, 10 mL of assay buffer and 100 μL of probenecid solution (dissolved by addition of 1 mL of assay buffer to a 250 mM stock) were sufficiently mixed and dissolved in Fluo-4 NW dye mix. The medium of cells inoculated on the previous day was removed, the dissolved Fluo-4 NW dye mix was added in an amount of 90 μL/well, and a reaction was caused in the dark at 37° C. for 45 minutes. The cells after the reaction and chips for addition of the compound were set in Flexstation, and variation in fluorescence intensity over time after addition of the compound was measured [amount of added compound=10 μL (final concentration: 10^−5 M to 10^−12 M), excitation wavelength: 485 nm, measured wavelength: 525 nm, 1.5 sec×54 read]. A value was calculated by subtracting a base value during addition of DMSO from the maximum value of relative fluorescence unit, and analyzed. All the measurement data were analyzed with Prism 4 that was a data analysis tool.

[1] = system: neutrophilic infiltration in mouse lung; experiment: Effect on lipopolysaccharide-induced neutrophilic infiltration in mouse lung (BAL fluid neutrophil count); format: in vivo; details: oral, BALB/c male mouse, 30 min before LPS aerosol, BAL neutrophil count after 5 hours relative to control
Procedure: Effect of lipopolysaccharide induction on neutrophilic infiltration in mouse lung A compound to be tested was orally administrated to a mouse (BALB/c, male), and after 30 minutes, the mouse was placed in a plastic container. Lipopolysaccharide (0.3 mg/mL) dissolved in physiological saline was aerosolized with an ultrasonic wave nebulizer (NE-U17, OMRON Corporation), and exposed to the mouse for 10 minutes. After 5 hours, the anesthetized mouse was sacrificed by exsanguination. […] This operation was repeated 3 times, to obtain a BAL fluid. The BAL fluid was centrifuged at 4° C. and ×200 g for 5 minutes, and the pellet was suspended in a physiological saline containing 0.1% BSA. The number of white blood cells was counted using Turks solution with a microscope, and the total white blood cell count was calculated. The white blood cells were fixed on a glass slide using Cytospin 3 (Thermo BioAnalysis Japan K. K.). The cells were stained with Diff-Quik (SYSMEX INTERNATIONAL REAGENTS CO., LTD.), and the number thereof was counted with a microscope, and the neutrophil ratio was calculated. The neutrophil ratio was multiplied by the total white blood cell count to calculate the total neutrophil count. An effect of the compound to be tested represents a percentage (%) of suppression ratio relative to the neutrophil count in a control.

EC50 (human FPRL1) [nM]	Structure (SMILES)	Suppression Ratio ([1]; dose 1 mg/kg) [%]	Suppression Ratio ([1]; dose 3 mg/kg) [%]
0.02	COc1cc(F)c([C@@H]2CN3CCON=C3[C@H]2NC(=O)Nc2ccc(F)cc2)c(F)c1 (relative stereo) [Example 7-7, 1-[(7R*,8S*)-7-(2,6-difluoro-4-methoxyphenyl)-4,6,7,8-tetrahydro-3H-pyrrolo[2,1-c][1,2,4]-oxadiazin-8-yl]-3-(4-fluorophenyl)urea]	97	–
0.54	COc1ccc([C@@H]2COCC2NC(=O)Nc2ccc(Cl)cc2)cc1 (single isomer, unassigned; (+)) [Example 2-1 Isomer A, (+)-cis-1-(4-Chlorophenyl)-3-[4-(4-methoxyphenyl)tetrahydrofuran-3-yl]urea]	–	82
0.62	COc1ccc([C@@H]2COCC2NC(=O)Nc2ccc(F)cc2)cc1 (single isomer, unassigned; (+)) [Example 3-1 Isomer A, (+)-cis-1-(4-Fluorophenyl)-3-[4-(4-methoxyphenyl)tetrahydrofuran-3-yl]urea]	–	80
